For five compounds, IC50 and antiproliferative effects results are on record in publication PMC9569839, “Methionine 274 Is Not the Determining Factor for Selective Inhibition of Histone Deacetylase 8 (HDAC8) by L-Shaped Inhibitors” (International Journal of Molecular Sciences, 2022).

Substitutions are numbered along the chain they refer to. Like-named read-outs stand apart in the source and are kept apart here.

The test system of one assay is HDAC1. As to conditions: cited from earlier work.
The next assay relates to HDAC2. As to conditions: cited from earlier work.
The next assay concerns HDAC4. As to conditions: cited from earlier work.
For the next assay, the system named is HDAC6. As to conditions: cited from earlier work.
In another assay the test system is HDAC3. As to conditions: read-out: IC50 (HDAC3), cited from earlier work.
The target of the next assay is T1, HDAC8wt (Homo sapiens, UniProt Q9BY41).
T1 sequence (Q9BY41 1-377): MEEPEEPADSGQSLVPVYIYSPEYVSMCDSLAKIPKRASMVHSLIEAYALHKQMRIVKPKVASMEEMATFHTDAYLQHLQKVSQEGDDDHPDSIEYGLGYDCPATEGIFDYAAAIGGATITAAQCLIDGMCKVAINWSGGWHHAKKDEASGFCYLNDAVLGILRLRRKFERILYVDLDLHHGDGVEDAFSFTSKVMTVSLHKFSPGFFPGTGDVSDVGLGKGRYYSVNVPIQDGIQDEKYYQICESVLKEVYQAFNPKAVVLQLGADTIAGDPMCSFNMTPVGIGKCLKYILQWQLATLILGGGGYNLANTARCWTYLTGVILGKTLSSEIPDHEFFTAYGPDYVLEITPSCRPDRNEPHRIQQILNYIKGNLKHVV
As to the kind of experiment: Enzyme activity assay, IC50 determination with Boc-Lys(TFA)-AMC.

In a further assay the target is T2, HDAC8M274A (Homo sapiens, UniProt Q9BY41, M274A).
T2 sequence (Q9BY41 1-377 M274A): T1 sequence (Q9BY41 1-377) with M274A
The description is as above.

Another assay has as its system HDAC10. As to conditions: cited from earlier work.
For a further assay, the system named is HDAC8. The settings on record: cited from earlier work.
The subject of a further assay is HDAC11. On the set-up: method as in Huang et al. [14]. As to conditions: ref Huang et al. [14]; cited from earlier work.
Assay [1] relates to several cancer cell lines. Also noted: method as in PMID 22907916. As to conditions: ref [14]; cited from earlier work.
Where [2] appears, read: ref Balasubramanian et al. [12].
The mark [3] stands for this setting: TSA value of Figure 1, source not given.

`O=C(NO)c1cccc(-c2cn(CSc3ccccc3)nn2)c1` [NCC-149]: the half-maximal inhibitory concentration (IC50) (usually the concentration that inhibits the measured activity by half) is 38000 nM in the assay on HDAC1 (ref Suzuki et al. [13]); greater than 100000 nM with HDAC2 (ref Suzuki et al. [13]); 44000 nM in the assay on HDAC4 (ref Suzuki et al. [13]); 2400 nM in the assay with HDAC6 (ref Suzuki et al. [13]); greater than 68000 nM in the assay with HDAC3 (ref Suzuki et al. [13]); 40 nM against HDAC8wt. Moreover, on HDAC8M274A, the IC50 came out at 300 nM.
Turning to `COc1ccc(Cn2ccc3ccc(C(=O)NO)cc32)cc1` [PCI-34051], the IC50 in the assay on HDAC2 (setting [2]) is […]; with HDAC10 (setting [2]), […]; in the assay with HDAC8 (read-out: IC50-value (HDAC8), introduction text, ref [12],[13]), […]; in the assay with HDAC3 (setting [2]), […].
Consider `O=C(CCCCCCC(=O)Nc1ccccc1)NO` [SAHA, suberoylanilide hydroxamic acid], for which the IC50 in the assay on HDAC6 (setting [2]) is 17 nM.
For `CC(/C=C/C(=O)NO)=C\[C@@H](C)C(=O)c1ccc(N(C)C)cc1` [TSA, trichostatin A], the IC50 in the assay with HDAC1 (setting [3]) is […]; in the assay on HDAC2 (setting [3]), […]; with HDAC4 (setting [3]), 3300 nM; with HDAC6 (setting [3]), 17 nM; in the assay with HDAC8 (read-out: IC50 (HDAC8), TSA value of Figure 1, source not given) it was 360 nM.
With `COc1ccc(/C=C/C(=O)NO)c(-c2ccc(-c3ccccc3)cc2)c1` [o-ACHA], the IC50 in the assay with HDAC1 (ref Huang et al. [14]) is 3000 nM; in the assay with HDAC2 (ref Huang et al. [14]), greater than 20000 nM; in the assay on HDAC4 (ref Huang et al. [14]), greater than 20000 nM; in the assay on HDAC6 (ref Huang et al. [14]), greater than 20000 nM; in the assay on HDAC10 (ref Huang et al. [14]), greater than 20000 nM; with HDAC11 it was greater than 20000 nM. Moreover, the 50% inhibitory concentration (IC50) in the assay with HDAC3 (ref Huang et al. [14]) was 3000 nM. Further, in [1], the antiproliferative effects result is given as “antiproliferative effects against several cancer cell lines”.
